Assay results taken from patent US20170246160A1, “SOLID PHARMACEUTICAL COMPOSITION” (KYORIN PHARMACEUTICAL CO., LTD., priority 2014, published 2017).

Assay: Dissolution test (paddle method, Japanese Pharmacopoeia Sixteenth Edition), first fluid for dissolution test
Type: physicochemical
Settings: for dissolution rate in the first fluid for dissolution test: 30 minutes after initiation, paddle 50 rpm, 37° C., 900 mL, hydrochloride
Procedure: In order to evaluate each of the compositions (tablets) in Example 1 and Comparative Example 1, a dissolution test was performed in accordance with dissolution apparatus 2 (paddle method) in the Japanese Pharmacopoeia Sixteenth Edition. Detailed conditions of the dissolution test are as follows.
In order to evaluate each of the compositions (tablets) in Example 2 and Comparative Example 2, a dissolution test was performed in the same manner as in Test Example 1.

[1] = coated tablets of Example 1 / Comparative Example 1 (direct compression), FIG. 5

Structure (SMILES) | dissolution rate in the first fluid for dissolution test [1] | dissolution rate in the first fluid for dissolution test (coated tablets of Example 2 / Comparative Example 2 (wet granulation method), FIG. 6) | dissolution rate in the first fluid for dissolution test (coated tablets of Example 2 / Comparative Example 2 (wet granulation method), FIG. 6, listed as B-form crystal) | dissolution rate in the first fluid for dissolution test compared with the tablet containing Compound 1 (A-form crystal) (tablets of Example 1 vs Comparative Example 1, FIG. 5)
COc1c(N2C[C@H](CNC3CC3)[C@H](F)C2)c(F)cc2c(=O)c(C(=O)O)cn(CCF)c12.Cl [Compound 1, 7-[(3S,4S)-3-((cyclopropylamino)methyl)-4-fluoropyrrolidine-1-yl]-6-fluoro-1-(2-fluoroethyl)-8-methoxy-4-oxo-1,4-dihydroquinoline-3-carboxylic acid hydrochloride] | at most 25% | at most 30% | – | –
COc1c(N2C[C@H](CNC3CC3)[C@H](F)C2)c(F)cc2c(=O)c(C(=O)O)cn(CCF)c12.Cl [Compound 2, 7-[(3S,4S)-3-{(cyclopropylamino)methyl}-4-fluoropyrrolidine-1-yl]-6-fluoro-1-(2-fluoroethyl)-8-methoxy-4-oxo-1,4-dihydroquinoline-3-carboxylic acid hydrochloride] | ≥ 80% | – | ≥ 80% | higher
